{"source": "patent US11795171B2", "about": "“Pyrrolotriazinones and imidazotriazinones as ubiquitin-specific protease 7 inhibitors” (Valo Health, Inc., priority 2014, dated 2023)", "data": [{"target": "USP7 (Homo sapiens (Human), UniProt Q93009)", "sequence (Q93009 208-1102)": "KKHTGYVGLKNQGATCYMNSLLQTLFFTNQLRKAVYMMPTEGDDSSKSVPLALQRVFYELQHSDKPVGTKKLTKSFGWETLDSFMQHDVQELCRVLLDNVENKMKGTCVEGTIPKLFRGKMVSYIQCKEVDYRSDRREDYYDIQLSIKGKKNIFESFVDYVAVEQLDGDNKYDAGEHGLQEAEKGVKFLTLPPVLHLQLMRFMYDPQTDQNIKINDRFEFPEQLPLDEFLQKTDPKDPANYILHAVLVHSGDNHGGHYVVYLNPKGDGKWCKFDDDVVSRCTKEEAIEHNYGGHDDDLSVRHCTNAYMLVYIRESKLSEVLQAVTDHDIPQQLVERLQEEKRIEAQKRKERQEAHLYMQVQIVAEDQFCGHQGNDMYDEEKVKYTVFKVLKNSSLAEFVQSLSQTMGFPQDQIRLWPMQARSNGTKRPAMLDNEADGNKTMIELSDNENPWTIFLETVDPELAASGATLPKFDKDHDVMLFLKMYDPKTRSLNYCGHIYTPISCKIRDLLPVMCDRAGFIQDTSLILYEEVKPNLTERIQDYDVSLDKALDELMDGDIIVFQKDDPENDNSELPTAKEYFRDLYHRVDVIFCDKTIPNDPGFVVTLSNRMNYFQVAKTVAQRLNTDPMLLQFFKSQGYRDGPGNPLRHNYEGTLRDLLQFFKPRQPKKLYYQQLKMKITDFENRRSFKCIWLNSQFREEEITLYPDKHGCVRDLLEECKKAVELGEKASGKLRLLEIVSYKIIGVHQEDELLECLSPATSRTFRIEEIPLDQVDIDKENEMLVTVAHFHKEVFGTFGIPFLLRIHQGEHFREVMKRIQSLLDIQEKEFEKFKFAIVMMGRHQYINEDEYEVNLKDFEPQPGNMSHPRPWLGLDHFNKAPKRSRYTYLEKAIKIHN", "test": "USP7 Assay B (Ubitquin-Rhodamine110 Assay)", "format": "biochemical", "details": "Ub-Rh110 substrate 25 nM", "method": "Stock compound solutions were stored at −20° C. as 10 mM in DMSO. […] Prestamped assay plates were allowed to come to room temperature on the day of the assay. For the screen, 100 nL of 2 mM was pre-dispensed for a final screening concentration of 10 μM (DMSO(fc)=0.5%). […] Unless otherwise indicated, all follow-up assays were run on triplecate plates. […] Pre-stamped with compounds were either not preincubated or preincubated with USP7 between 30 to 120 minutes prior to the addition of 10 μL of 2×Ub-Rh110 to compound plates. Plates were incubated stacked for either 23 or 45 minutes at room temperature before fluorescence was read on the Envision (Excitation at 485 nm and Emission at 535 nm; Perkin Elmer) or on the PheraSTAR (Excitation at 485 nm and Emission at 535 nm; BMG Labtech).\nData from USP7 Assays A and B were reported as percent inhibition (inh) compared with control wells based on the following equation: % inh=1−((FLU−AveLow)/(AveHigh−AveLow)) where FLU=measured Fluorescence (See Tables 2 and 3). AveLow=average Fluorescence of no enzyme control (n=16). AveHigh=average Fluorescence of DMSO control (n=16). IC50 values were determined by curve fitting of the standard 4 parameter logistic fitting algorithm included in the Activity Base software package: IDBS XE Designer Model205. Data is fitted using the Levenburg Marquardt algorithm.", "units": {"IC50": "µM"}, "values": [{"molecule": "O=C(c1ccc(-c2ccc3ocnc3c2)cc1)N1CCC(O)(Cn2cnn3cccc3c2=O)CC1", "note": "[Compound I-47, 3-((1-(4-(benzo[d]oxazol-5-yl)benzoyl)-4-hydroxypiperidin-4-yl)methyl)pyrrolo[2,1-f][1,2,4]triazin-4(3H)-one]", "IC50": "> 10"}, {"molecule": "O=C(c1ccc(-c2ccc(C(=O)N3CCC(O)(Cn4cnn5cccc5c4=O)CC3)c(Cl)c2)cc1)N1CCCC1", "note": "[Compound I-51, 3-((1-(3-chloro-4′-(pyrrolidine-1-carbonyl)-[1,1′-biphenyl]-4-carbonyl)-4-hydroxypiperidin-4-yl)methyl)pyrrolo[2,1-f][1,2,4]triazin-4(3H)-one]", "IC50": "1 to 10"}, {"molecule": "Cc1ccc(-c2cccc(C(=O)N3CCC(O)(Cn4cnn5cccc5c4=O)CC3)c2)cc1", "note": "[Compound I-7, 3-((4-hydroxy-1-(4′-methyl-[1,1′-biphenyl]-3-carbonyl)piperidin-4-yl)methyl)pyrrolo[2,1-f][1,2,4]triazin-4(3H)-one]", "IC50": "1 to 10"}, {"molecule": "Cc1cc2c(=O)n(CC3(O)CCN(C(=O)C(C)Cc4ccccc4)CC3)cnn2c1", "note": "(centres unmarked) [Compound I-84, 3-((4-hydroxy-1-(2-methyl-3-phenylpropanoyl)piperidin-4-yl)methyl)-6-methylpyrrolo[2,1-f][1,2,4]triazin-4(3H)-one]", "IC50": "1 to 10"}, {"molecule": "N#Cc1ccccc1-c1cccc(C(=O)N2CCC(O)(Cn3cnn4cccc4c3=O)CC2)c1", "note": "[Compound I-18, 3′-(4-hydroxy-4-((4-oxopyrrolo[2,1-f][1,2,4]triazin-3(4H)-yl)methyl)piperidine-1-carbonyl)-[1,1′-biphenyl]-2-carbonitrile]", "IC50": "> 10"}, {"molecule": "CNC(=O)Nc1cc2c(=O)n(CC3(O)CCN(C(=O)C[C@@H](C)c4ccccc4)CC3)cnn2c1", "note": "[Compound I-82, (R)-1-(3-((4-hydroxy-1-(3-phenylbutanoyl)piperidin-4-yl)methyl)-4-oxo-3,4-dihydropyrrolo[2,1-f][1,2,4]triazin-6-yl)-3-methylurea]", "IC50": "0.2 to 1"}, {"molecule": "O=C(c1cccc(-c2cccs2)c1)N1CCC(O)(Cn2cnn3cccc3c2=O)CC1", "note": "[Compound I-27, 3-((4-hydroxy-1-(3-(thiophen-2-yl)benzoyl)piperidin-4-yl)methyl)pyrrolo[2,1-f][1,2,4]triazin-4(3H)-one]", "IC50": "> 10"}, {"molecule": "Cc1ccc(NC(=O)Nc2cc3c(=O)n(CC4(O)CCN(C(=O)C5CC5)CC4)cnn3c2)cc1", "note": "[Compound I-89, 1-(3-((1-(cyclopropanecarbonyl)-4-hydroxypiperidin-4-yl)methyl)-4-oxo-3,4-dihydropyrrolo[2,1-f][1,2,4]triazin-6-yl)-3-(p-tolyl)urea]", "IC50": "> 10"}, {"molecule": "O=C(C1CCN(c2nc3ccccc3o2)CC1)N1CCC(O)(Cn2cnn3cccc3c2=O)CC1", "note": "[Compound I-33, 3-((1-(1-(benzo[d]oxazol-2-yl)piperidine-4-carbonyl)-4-hydroxypiperidin-4-yl)methyl)pyrrolo[2,1-f][1,2,4]triazin-4(3H)-one]", "IC50": "> 10"}, {"molecule": "Cc1ccccc1-c1cccc(C(=O)N2CCC(O)(Cn3cnn4cccc4c3=O)CC2)c1", "note": "[Compound I-6, 3-((4-hydroxy-1-(2′-methyl-[1,1′-biphenyl]-3-carbonyl)piperidin-4-yl)methyl)pyrrolo[2,1-f][1,2,4]triazin-4(3H)-one]", "IC50": "1 to 10"}, {"molecule": "3-((4-hydroxy-1-(3-phenylbutanoyl)piperidin-4-yl)methyl)-6-methylpyrrolo[2,1-f][1,2,4]triazin-4(3H)-one [Compound I-83]", "IC50": "1 to 10"}, {"molecule": "3-((1-(3-(1H-pyrazol-1-yl)butanoyl)-4-hydroxypiperidin-4-yl)methyl)pyrrolo[2,1-f][1,2,4]triazin-4(3H)-one [Compound I-34]", "IC50": "> 10"}, {"molecule": "O=C(c1ccccc1-c1ccccc1)N1CCC(O)(Cn2cnn3cccc3c2=O)CC1", "note": "[Compound I-2, 3-((1-([1,1′-biphenyl]-2-carbonyl)-4-hydroxypiperidin-4-yl)methyl)pyrrolo[2,1-f][1,2,4]triazin-4(3H)-one]", "IC50": "> 10"}, {"molecule": "CCOc1cccc(-c2ccc(C(=O)N3CCC(O)(Cn4cnn5cccc5c4=O)CC3)cc2)c1", "note": "[Compound I-37, 3-((1-(3′-ethoxy-[1,1′-biphenyl]-4-carbonyl)-4-hydroxypiperidin-4-yl)methyl)pyrrolo[2,1-f][1,2,4]triazin-4(3H)-one]", "IC50": "> 10"}, {"molecule": "O=C(c1ccccc1)N1CCC(O)(Cn2cnn3c(-c4ccccc4)ncc3c2=O)CC1", "note": "[Compound I-115, 3-((1-benzoyl-4-hydroxypiperidin-4-yl)methyl)-7-phenylimidazo[5,1-f][1,2,4]triazin-4(3H)-one]", "IC50": "1 to 10"}, {"molecule": "O=C(c1cccc(-c2ccccc2)c1)N1CCC(O)(Cn2cnn3cccc3c2=O)CC1", "note": "[Compound I-11, 3-((1-([1,1′-biphenyl]-3-carbonyl)-4-hydroxypiperidin-4-yl)methyl)pyrrolo[2,1-f][1,2,4]triazin-4(3H)-one]", "IC50": "1 to 10"}, {"molecule": "Cc1ccc(C(=O)Nc2cc3c(=O)n(CC4(O)CCN(C(=O)C5CC5)CC4)cnn3c2)cc1Cl", "note": "[Compound I-108, 3-chloro-N-(3-((1-(cyclopropanecarbonyl)-4-hydroxypiperidin-4-yl)methyl)-4-oxo-3,4-dihydropyrrolo[2,1-f][1,2,4]triazin-6-yl)-4-methylbenzamide]", "IC50": "> 10"}, {"molecule": "NC(=O)c1ccc(-c2cccc(C(=O)N3CCC(O)(Cn4cnn5cccc5c4=O)CC3)c2)cc1", "note": "[Compound I-16, 3′-(4-hydroxy-4-((4-oxopyrrolo[2,1-f][1,2,4]triazin-3(4H)-yl)methyl)piperidine-1-carbonyl)-[1,1′-biphenyl]-4-carboxamide]", "IC50": "1 to 10"}, {"molecule": "CC(CC(=O)Nc1cc2c(=O)n(CC3(O)CCN(C(=O)C4CC4)CC3)cnn2c1)c1ccc(Cl)cc1", "note": "(centres unmarked) [Compound I-113, 3-(4-chlorophenyl)-N-(3-((1-(cyclopropanecarbonyl)-4-hydroxypiperidin-4-yl)methyl)-4-oxo-3,4-dihydropyrrolo[2,1-f][1,2,4]triazin-6-yl)butanamide]", "IC50": "> 10"}, {"molecule": "O=C(NCc1ccc(F)cc1)Nc1cc2c(=O)n(CC3(O)CCN(C(=O)C4CC4)CC3)cnn2c1", "note": "[Compound I-87, 1-(3-((1-(cyclopropanecarbonyl)-4-hydroxypiperidin-4-yl)methyl)-4-oxo-3,4-dihydropyrrolo[2,1-f][1,2,4]triazin-6-yl)-3-(4-fluorobenzyl)urea]", "IC50": "> 10"}, {"molecule": "O=C(c1ccc(-c2cnc3ccccc3c2)cc1)N1CCC(O)(Cn2cnn3cccc3c2=O)CC1", "note": "[Compound I-42, 3-((4-hydroxy-1-(4-(quinolin-3-yl)benzoyl)piperidin-4-yl)methyl)pyrrolo[2,1-f][1,2,4]triazin-4(3H)-one]", "IC50": "1 to 10"}, {"molecule": "O=C(c1ccc(-c2ccc(C(=O)N3CCC(O)(Cn4cnn5cccc5c4=O)CC3)cc2)cc1)N1CCCCC1", "note": "[Compound I-52, 3-((4-hydroxy-1-(4′-(piperidine-1-carbonyl)-[1,1′-biphenyl]-4-carbonyl)piperidin-4-yl)methyl)pyrrolo[2,1-f][1,2,4]triazin-4(3H)-one]", "IC50": "> 10"}, {"molecule": "Cc1cccc(NC(=O)Nc2cc3c(=O)n(CC4(O)CCN(C(=O)C5CC5)CC4)cnn3c2)c1", "note": "[Compound I-86, 1-(3-((1-(cyclopropanecarbonyl)-4-hydroxypiperidin-4-yl)methyl)-4-oxo-3,4-dihydropyrrolo[2,1-f][1,2,4]triazin-6-yl)-3-(m-tolyl)urea]", "IC50": "> 10"}, {"molecule": "O=C(CC1CCc2ccccc2C1)N1CCC(O)(Cn2cnn3cccc3c2=O)CC1", "note": "(centres unmarked) [Compound I-58, 3-((4-hydroxy-1-(2-(1,2,3,4-tetrahydronaphthalen-2-yl)acetyl)piperidin-4-yl)methyl)pyrrolo[2,1-f][1,2,4]triazin-4(3H)-one]", "IC50": "> 10"}, {"molecule": "O=C(c1cccc(-c2ccsc2)c1)N1CCC(O)(Cn2cnn3cccc3c2=O)CC1", "note": "[Compound I-28, 3-((4-hydroxy-1-(3-(thiophen-3-yl)benzoyl)piperidin-4-yl)methyl)pyrrolo[2,1-f][1,2,4]triazin-4(3H)-one]", "IC50": "> 10"}, {"molecule": "O=C(COc1cccc(Cl)c1Cl)Nc1cc2c(=O)n(CC3(O)CCN(C(=O)C4CC4)CC3)cnn2c1", "note": "[Compound I-106, N-(3-((1-(cyclopropanecarbonyl)-4-hydroxypiperidin-4-yl)methyl)-4-oxo-3,4-dihydropyrrolo[2,1-f][1,2,4]triazin-6-yl)-2-(2,3-dichlorophenoxy)acetamide]", "IC50": "1 to 10"}, {"molecule": "Cn1cnc2cc(-c3ccc(C(=O)N4CCC(O)(Cn5cnn6cccc6c5=O)CC4)cc3)ccc21", "note": "[Compound I-46, 3-((4-hydroxy-1-(4-(1-methyl-1H-benzo[d]imidazol-5-yl)benzoyl)piperidin-4-yl)methyl)pyrrolo[2,1-f][1,2,4]triazin-4(3H)-one]", "IC50": "> 10"}, {"molecule": "Cc1ccc2[nH]ncc2c1-c1cccc(C(=O)N2CCC(O)(Cn3cnn4cccc4c3=O)CC2)c1", "note": "[Compound I-24, 3-((4-hydroxy-1-(3-(5-methyl-1H-indazol-4-yl)benzoyl)piperidin-4-yl)methyl)pyrrolo[2,1-f][1,2,4]triazin-4(3H)-one]", "IC50": "1 to 10"}, {"molecule": "O=C(c1ccc(-c2ccccc2)cc1)N1CCC(O)(Cn2cnn3cccc3c2=O)CC1", "note": "[Compound I-36, 3-((1-([1,1′-biphenyl]-4-carbonyl)-4-hydroxypiperidin-4-yl)methyl)pyrrolo[2,1-f][1,2,4]triazin-4(3H)-one]", "IC50": "> 10"}]}]}
